The CC50 is the concentration giving 50% cytotoxicity. A word on the IC50: it is the concentration needed to halve the response being measured.

The results in this text go back to article PMC6356680, “Clerodane Diterpenes from the Marine Sponge Raspailia bouryesnaultae Collected in South Brazil” (Marine Drugs, 2019).

Data set [1] can be described thus: in vitro. Type of data set: cell-based. The conditions noted are these: African green monkey. As to the method: (§1) Non-small cells of human lung cancer cells (A549; ATCC: CCL 195) and African Green monkey kidney fibroblasts (Vero; ATCC: CCL81) were grown in Eagle’s minimum essential medium (MEM; Cultilab, Campinas, Brazil) supplemented with 1% glutamine (Gibco, Carlsbad, CA, USA) and 10% fetal bovine serum (FBS; Gibco, Carlsbad, CA, USA), and maintained at 37 °C and 5% CO2 in a humidified atmosphere. The antiproliferative screening was performed by sulforhodamine B assay (SRB). In summary, A549 cells were seeded into 96-well plates (2.5 × 10^4 cells per well) and exposed to different concentrations of compounds 1–6 for 48 h. Paclitaxel (PAC, Sigma-Aldrich, St. Louis, MO, USA) was used as a positive control. After incubation, 10% trichloroacetic acid (TCA) was added to each well to fix the cells, and then the cells were washed and stained with SRB. […] The ratio between CC50 and IC50 values was calculated to obtain the selectivity index (SI) of each sample.
(§2) Firstly, the cytotoxicity of compounds 1–6 was determined by SRB assay as described above. HSV-1 (KOS and 29R strains, which are sensitive and resistant to acyclovir, respectively, Faculty of Pharmacy, University of Rennes I, Rennes, France) were propagated in the permissive Vero cells. Viral stocks were titrated as based on plaque-forming units (PFU), counted by plaque assay as previously described, and stored at −80 °C until used. To perform the anti-HSV-1 screening, the viral plaque number reduction assay was used as described previously by Boff et al.. Briefly, confluent Vero cell monolayers (2.5 × 10^5 cells per well) were infected with approximately 100 PFU of each virus strain for 1 h at 37 °C. Treatments were performed by adding non-cytotoxic concentrations of the compounds after viral infection (post-infection treatment). Cells were then washed with phosphate-buffered saline (PBS) and overlaid with MEM containing 1.5% carboxymethylcellulose (CMC; Sigma-Aldrich) in the presence or absence of different concentrations of the compounds and incubated for 48 h. Cells were fixed and stained with naphthol blue-black (Sigma-Aldrich), and viral plaques were counted by using a stereomicroscope. The results were presented as percentages of viral inhibition or by IC50 values, which are defined as the concentration of each sample that inhibited viral plaque formation by 50% (IC50) when compared to untreated controls. The ratio between CC50 and IC50 values was calculated to obtain the selectivity index (SI) of each sample. Acyclovir (ACV, Sigma-Aldrich) was used as a positive control for HSV-1 (KOS strain) and as a negative control for HSV-1 (29-R strain) replication.

Data set [2] relates to HSV-1 (KOS strain). Nature of the data set: Viral plaque number reduction assay, HSV-1 KOS strain. Type of data set: cell-based, Herpes Simplex Virus type 1. The conditions noted are these: for IC50: read-out: IC50 (KOS Strain). As to the method:
as §2

Data set [3] deals with non-small cells of human lung cancer (A549). Briefly: in vitro. Type of data set: cell-based. The conditions noted are these: 48 h of treatment, sulforhodamine B assay, mean of three independent experiments, read-out: IC50 A549 Cell Line (Confidence Interval 95%). How it is done:
as §1
Background: Sulforhodamine B stains cellular protein and so reports cell mass.

A short description of data set [4]: in vitro. Type of data set: cell-based. Particulars: African green monkey (Vero) and human (A549), Vero cells (CC50) and A549 cells (IC50); CC50 Vero / IC50 A549; read-out: SI (selective index = CC50/IC50). As to the method: as §1
The test system of data set [5] is HSV-1 (29R strain). Nature of the data set: Viral plaque number reduction assay, HSV-1 29R strain. Type of data set: cell-based, Herpes Simplex Virus type 1. Particulars: for inhibition at 100 µg/mL: tested concentration 100 µg/mL. How it is done: as §2
The test system of data set [6] is Vero cell line. Nature of the data set: in vitro. The conditions noted are these: African green monkey, 48 h. Type of data set: cell-based. How it is done:
as §1, §2

Setting [7] is: Human alphaherpesvirus 1, 48 h, tested concentration 100 µg/mL, 48 h, post-infection treatment, read-out: % HSV-1 Inhibition ± SD, KOS Strain.
The mark [8] stands for this setting: Human alphaherpesvirus 1, 48 h, acyclovir-resistant strain, read-out: % HSV-1 Inhibition ± SD, 29R Strain.

Molecules are shown by their SMILES. Like-named read-outs stand apart in the source and are kept apart here.

In data set [1], `COC(=O)[C@@]12C(C)=CCC[C@@H]1[C@@](C)(CCc1ccoc1)[C@@H](C)C[C@H]2O` [Compound 4, kerlinic acid methyl ester] gave a CC50 at 48 h of 98.4 µM. Besides, the 50% inhibitory concentration (IC50) in data set [2] (Human alphaherpesvirus 1, 48 h) was 52.4 ± 4.78 µM; in data set [3] it was 20.6 µM; in data set [3] (Homo sapiens, A549, 48 h), below 25 µM. The inhibition at 50 µg/mL is 50% in data set [2] (Human alphaherpesvirus 1, 48 h, tested concentration 50 µg/mL, 48 h, post-infection treatment, read-out: % HSV-1 Inhibition ± SD, KOS Strain) and 14.4 ± 5.46% in data set [5] (Human alphaherpesvirus 1, 48 h, tested concentration 50 µg/mL, acyclovir-resistant strain, read-out: % HSV-1 Inhibition ± SD, 29R Strain). The “% HSV-1 Inhibition ± SD, KOS Strain” value in data set [2] (tested concentration 50 µg/mL, 48 h, post-infection treatment) is listed as 50.23 ± 8.24%. Besides, the selectivity ratio at 48 h in data set [4] stood at 4.77.

Turning to `CC1=CCC[C@@H]2[C@@](C)(CCc3ccoc3)[C@@H](C)C[C@@H](O)[C@]12C` [Compound 6, 6-hydroxyannonene], the midpoint of cytotoxicity in data set [1], the CC50 at 48 h, lay at 40.8 µM. The inhibition at 25 µg/mL in data set [2] (Human alphaherpesvirus 1, 48 h, tested concentration 25 µg/mL, 48 h, post-infection treatment, read-out: % HSV-1 Inhibition ± SD, KOS Strain) was found to be 0%; in data set [5] (Human alphaherpesvirus 1, 48 h, tested concentration 25 µg/mL, acyclovir-resistant strain, read-out: % HSV-1 Inhibition ± SD, 29R Strain), 0%. In addition, the 50% inhibitory concentration (IC50) in data set [3] is 24.5 µM; in data set [3] (Homo sapiens, A549, 48 h), below 25 µM. The selectivity ratio at 48 h in data set [4] amounted to 1.66.

Consider `CC1=CCC[C@@H]2[C@@](C)(CCc3ccoc3)[C@@H](C)CC[C@]12C` [Compound 5, annonene], for which the CC50 at 48 h in data set [1] is above 250 µM. The inhibition at 100 µg/mL is 15.2 ± 4.65% in data set [2] (setting [7]) and 30.9 ± 9.07% in data set [5] (setting [8]). In data set [3] (Homo sapiens, A549, 48 h), the half-maximal inhibitory concentration (IC50) is 144 µM. In addition, the selectivity ratio at 48 h in data set [4] is above 1.74.

On to `C=C1C(C)=CCC[C@@H]1[C@@](C)(CCc1ccoc1)[C@@H](C)CC(=O)OC` [Compound 2, raspadiene], for which the half-maximal cytotoxic concentration (CC50) in data set [6] is above 250 µM. Further, the CC50 at 48 h in data set [1] is above 250 µM. Also, the inhibition at 100 µg/mL in data set [2] (Human alphaherpesvirus 1, 48 h, read-out: % HSV-1 Inhibition ± SD, KOS Strain, tested concentration 100 µg/mL, 48 h, post-infection treatment) worked out at 83%; in data set [5] (setting [8]), 74%. Moreover, the half-maximal inhibitory concentration (IC50) in data set [2] (Human alphaherpesvirus 1, 48 h) is 81.4 ± 9.82 µM; in data set [3] (Homo sapiens, A549, 48 h), 100 µM; in data set [5] (Human alphaherpesvirus 1, 48 h, concentration ± SD that inhibited 50% of viral replication, unit inferred) it was 74.9 ± 7.3 µM. Also, in data set [2] (tested concentration 100 µg/mL, 48 h, post-infection treatment), the “% HSV-1 Inhibition ± SD, KOS Strain” value was 83.41 ± 16.12%. The selectivity ratio at 48 h in data set [4] is above 2.49.

Compound `C[C@H]1C[C@@H](O)[C@]23C(=CCC[C@@H]2[C@@]1(C)CCc1ccoc1)CO[C@H]3O` [Compound 1, raspailol] showed a CC50 at 48 h in data set [1] of 148 µM. Besides, the inhibition at 100 µg/mL in data set [2] (setting [7]) turned out to be 34.6 ± 7.36%; in data set [5] (setting [8]), 0%. The IC50 was 24.1 µM in data set [3] and below 25 µM in data set [3] (Homo sapiens, A549, 48 h). In addition, the selectivity ratio at 48 h in data set [4] is 6.14.

With `CC1=CCC[C@H]2C1(C(=O)O)[C@H](O)C[C@H](C)[C@]2(C)CCc1ccoc1` (stereo partly drawn) [Compound 3, kerlinic acid], in data set [1], the half-maximal cytotoxic concentration (CC50) at 48 h is 182 µM. Besides, the results for the inhibition at 100 µg/mL in data set [2] (setting [7]) and in data set [5] (setting [8]) were 24.4 ± 4.04% and 32 ± 6.12%, respectively. The concentration for half-maximal inhibition (IC50) in data set [3] (Homo sapiens, A549, 48 h) came to 66.2 µM. The selectivity ratio at 48 h in data set [4] was found to be 2.74.
